The test system of series [1] is healthy PBMCs. Briefly: Seahorse OCR of healthy PBMCs treated in vitro with MPA. The series is classed as cell-based, human. Conditions: for Effect on OCR increase of low dose MPA-treated cells: etomoxir (2 μM) 1 hour prior to measurement; for OCR: 48 hours prior to plating. Here is the method: (§1) FIGS. 4A-4J show high dose MMF inhibits mitochondrial fatty acid oxidation. FIGS. 4A-4B show normalized mean fluorescent intensity (MFI) of CD11c and CPT1a on total class-switched B cells segregated by dose of MMF; high (>1000), low (<1000), or none. […] FIGS. 4D-4E show oxygen consumption rate (OCR) following mitochondrial stress test of PBMCs plated directly post thaw from SOTRs or HCs (FIG. 4D) or healthy PBMCs treated in vitro with high or low dose MPA 48 hours prior to plating (FIG. 4E).
FIGS. 8A-81 show high dose MPA induces mitochondrial unresponsiveness. […] FIGS. 8D-8G show healthy PBMCs were treated with 5 μM MPA for 24 hours in complete media then rested overnight in low-nutrient media prior to analysis. Oxygen consumption rate (OCR) of exposed to long chain fatty acid palmitate (165 μM) (FIG. 8D), medium chain fatty acid octanoic acid (200 μM) (FIG. 8E), glucose (10 mM) and pyruvate (1 mM) (FIG. 8F), or glutamine (2 mM) (FIG. 8G) 20 minutes prior to analysis. FIGS. 8H-81 show fold change in baseline (FIG. 8H) or maximal (FIG. 81) OCR when healthy PBMCs were supplied with indicated substrates.
To test this hypothesis, cells were exposed to low dose etomoxir, an inhibitor of CPT1a transport of FAs into mitochondria. […] To confirm that high dose MPA inhibits FAO, palmitate (a long chain FA) was added exogenously to cultures 20 minutes prior to evaluation of mitochondrial respiration.

The next series deals with B cells and T cells. Briefly: OCR of B cells and T cells treated with MPA and etomoxir. Type of series: cell-based, human. From the text: FIGS. 16A-16C show low dose MPA induces CPT1a-dependent FAO in B cells but not T cells.
In a further series the test system is T cells and B cells. Nature of the series: Cell Trace Violet proliferation of stimulated T cells and B cells in the presence of MPA. Conditions: 6 days. The series is classed as cell-based, human.
Series [2] has as its system PBMCs. Briefly: Viability of PBMCs after MPA treatment. The series is classed as cell-based, human. Conditions: PBMCs 48 hours after 5 μM MPA, versus untreated.
Series [3] relates to healthy PBMCs. Nature of the series: Oil red O staining of healthy PBMCs treated in vitro with MPA. Type of series: cell-based, human. Conditions: high dose MPA (5 μM). Here is the method:
Genes associated lipid synthesis were increased in total B cells from SOTRs (R or NR) in SCR.NA seq (FIG. 14A). PCA plot of lipidomics performed on total B cells derived from SOTRs or HCs (FIG. 14B). […] Accumulation of lipid droplets were measured by Oil Red O in PBMCs from HC or SOTR (FIG. 14D).

The test system of a further series is class-switched B cells. Briefly: Flow cytometry of CD11c and CPT1a on class-switched B cells of SOTRs by MMF dose. Conditions: SOTRs on high dose MMF or MPA (>1000 mg/per day or >721 mg/day). Type of series: in vivo, human. How it is done: as §1
For series [4], the system named is PBMCs. Briefly: Seahorse XF Cell Mito Stress Test (OCR) of PBMCs from SOTRs, ex vivo. The series is classed as in vivo, human. How it is done: as §1
(§2) Due to the association with MMF dose and CPT1a expression, PBMCs from SOTRs receiving high dose, low dose, or no MMF were evaluated ex vivo for alterations in lipid metabolism. Immunosuppression dose is largely determined by estimation of graft function and the measurement of the blood levels of immunosuppressive drugs, although neither method is sensitive or specific for determining the current immunosuppressive status, particularly for MMF, where drug levels are not routinely measured. […] Mitochondrial bioenergetics were next measured directly ex vivo via the Agilent Seahorse XF Cell Mito Stress Test at basal levels and in response to mitochondrial stress, in the absence of additional stimulation or exogenous substrates. The oxygen consumption rate (OCR) was used as a measurement of mitochondrial respiration/oxidative phosphorylation (OXPHOS).

Series [5] has as its system PBMCs. Briefly: Oil red O staining of lipid droplets in PBMCs from SOTRs, ex vivo. Details: species or system human. Conditions: PBMCs from SOTRs on high dose MMF. Here is the method:
as §1
as §2, with “(OXPHOS). […]” for “(OXPHOS).”

A further series relates to SARS-COV-2 spike. The series is classed as in vivo, human. Conditions: SOTRs on immunosuppression, two weeks post dose three.
Setting [6] is: etomoxir (CPT1a inhibition), MPA-treated.

Entries after “also recorded” stand apart in the source; their conditions may differ. Read-outs that look alike come from different tables or passages of the source.

In the case of `CCOC(=O)[C@@]1(CCCCCCOc2ccc(Cl)cc2)CO1` [etomoxir], the “Effect on OCR increase of low dose MPA-treated cells” value with healthy PBMCs [1] is recorded as “completely reversed the increase in OCR”. The “Effect on OCR increase of low dose MPA-treated cells” value in the series on healthy PBMCs [1] (listed as Etomoxir) is reported as “completely reversed the increase of OCR”. Also, in the series with B cells and T cells (setting [6]), the “OCR of B cells” value was “reduced OCR to baseline levels in B cells” and the “OCR of T cells” value was “had no effect on T cells”.
For the compound `COc1c(C)c2c(c(O)c1C/C=C(\C)CCC(=O)O)C(=O)OC2` [MPA, mycophenolic acid], the Lymphocyte proliferation result in the series on T cells and B cells (high dose MPA (5 μM)) is “completely inhibit proliferation”; in the series on T cells and B cells (low dose MPA (0.05 μM)), “limit proliferation”. In addition, in the series on PBMCs [2], the Cell viability entry is listed as “equivalent cell viability”. In addition, in the series on healthy PBMCs [1] (high dose MPA), the “Response to mitochondrial stress tests” value is “comparable manner to untreated cells”. The “Mitochondrial oxidation of supplemented substrates (medium-chain fatty acids, glucose, glutamine)” value in the series with healthy PBMCs [1] (high dose MPA (5 μM)) was “inhibits mitochondrial oxidation of various substrates; also recorded: diminished mitochondrial oxidation of various supplemented substrates”. The results for the OCR entry in the series with healthy PBMCs [1] (high dose MPA (5 μM)) and in the series on healthy PBMCs [1] (low dose MPA) were “reduced OCR compared to low dose” and “directly induced increased OCR; also recorded: increased OCR compared to untreated PBMCs”, respectively. Moreover, the “Oxidation of exogenous palmitate (OCR)” value in the series on healthy PBMCs [1] (high dose MPA, palmitate (165 μM) 20 minutes prior) is recorded as “not able to oxidize exogenous long-chain fatty acid palmitate; also recorded: unable to oxidize palmitate”. Also, the “Accumulation of lipids (Oil Red O)” value in the series on healthy PBMCs [3] is “increased accumulation of lipids”; in the series on healthy PBMCs [3] (listed as mycophenolic acid) it was “Accumulation of lipid droplets was seen”. For the same compound, the “OCR of B cells” value in the series on B cells and T cells (high dose MPA) is “blunted the increased OCR in B cells”. Further, the “OCR of B cells versus T cells” value in the series with B cells and T cells (low dose MPA) is “only B cells increased their OCR”. Further, the “CD11c expression on class switched B cells” value in the series with class-switched B cells is “significantly lower”. Moreover, the “CPT1a expression on class switched B cells” value in the series with class-switched B cells was “significantly lower”.
As to `COc1c(C)c2c(c(O)c1C/C=C(\C)CCC(=O)OCCN1CCOCC1)C(=O)OC2` [MMF, mycophenolate mofetil], the “Oxygen consumption rate (OCR)” value with PBMCs [4] (PBMCs from SOTRs on high dose MMF) was “reduced oxygen consumption rate; also recorded: reduced OCR compared to other SOTRs”. For the same compound, in the series on PBMCs [4] (PBMCs from SOTRs on low dose MMF, no exogenous substrates), the “Basal respiration (OCR)” value is “significantly higher basal respiration compared to HCs”. Also, the “Intracellular lipid droplets (Oil Red O)” value in the series on PBMCs [5] is given as “higher levels of Oil Red O staining; also recorded: accumulation of intracellular lipid droplets”. Further, the “Association of treatment with anti-S IgG response to third vaccine dose” value in the series with SARS-COV-2 spike is listed as “specifically associated with a lack of response”. Further, the “Association of treatment with anti-S IgG response to third vaccine dose” value with SARS-COV-2 spike (listed as mycophenolate mofetil) is given as “all participants who failed to respond to a 3rd dose received”. In the series with class-switched B cells, the “CD11c expression on class switched B cells” value is reported as “significantly lower” and the “CPT1a expression on class switched B cells” value is recorded as “significantly lower”.

The values above are taken from patent publication US20250264460A1, “METHOD OF MEASURING LEVEL OF IMMUNE SUPPRESSION” (THE JOHNS HOPKINS UNIVERSITY, priority 2022, published 2025).
